Results from ChEMBL document CHEMBL1201862, “PubChem BioAssay data set” (2004).
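Step 1: Grow cells in 96-well plates. Step 2: Expose to compound for 48 hours at 5 concentrations. Step 3: Interpolate endpoints linearly; if unreached, use highest concentration. Here, GI50 denotes the concentration required for 50% inhibition of growth.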 The source made the active and inactive calls. Cut-off read from the data, not from the text of the source: active = GI50 up to about 1.1 µM and inactive = higher.

Experiments:
Test in all cases: inhibition of tumour cell growth, NCI panel, 48 h
UACC-62 = tested on: UACC-62
RPMI-8226 = tested on: RPMI-8226
T47D = tested on: T47D
MDA-MB-435 = tested on: MDA-MB-435
SNB-75 = tested on: SNB-75
MDA-N = tested on: MDA-N
HOP-92 = tested on: HOP-92
NCI-H23 = tested on: NCI-H23
EKVX = tested on: EKVX
UACC-257 = tested on: UACC-257
Malme-3M = tested on: Malme-3M
HT-29 = tested on: HT-29
A549 = tested on: A549
MCF7 = tested on: MCF7
OVCAR-5 = tested on: OVCAR-5
U-251 = tested on: U-251
PC-3 = tested on: PC-3
TK-10 = tested on: TK-10
Hs-578T = tested on: Hs-578T
SK-MEL-5 = tested on: SK-MEL-5

SMILES	GI50 (UACC-62)	GI50 (RPMI-8226)	GI50 (T47D)	GI50 (MDA-MB-435)	GI50 (SNB-75)	GI50 (MDA-N)	GI50 (HOP-92)	GI50 (NCI-H23)	GI50 (EKVX)	GI50 (UACC-257)	GI50 (Malme-3M)	GI50 (HT-29)	GI50 (A549)	GI50 (MCF7)	GI50 (OVCAR-5)	GI50 (U-251)	GI50 (PC-3)	GI50 (TK-10)	GI50 (Hs-578T)	GI50 (SK-MEL-5)
CCN(CC)c1ccc(C(=C2C=CC(=[N+](CC)CC)C=C2)c2ccc(N(CC)CC)cc2)cc1	0.219 µM (active)	0.0342 µM (active)	0.106 µM (active)	0.111 µM (active)	0.104 µM (active)	0.103 µM (active)	0.211 µM (active)	0.0773 µM (active)	0.244 µM (active)	0.132 µM (active)	0.148 µM (active)	0.0414 µM (active)	0.04 µM (active)	0.158 µM (active)	0.303 µM (active)	0.0412 µM (active)	0.0423 µM (active)	0.214 µM (active)	0.0889 µM (active)	0.094 µM (active)
O=[N+]([O-])c1nccn1CCCNc1ccnc2cc(Cl)ccc12	6.21 µM (inactive)	4.34 µM (inactive)	7.67 µM (inactive)	6.71 µM (inactive)	6.62 µM (inactive)	7.29 µM (inactive)	> 7.98 µM (inactive)	5.52 µM (inactive)	1.93 µM (inactive)	3.44 µM (inactive)	29 µM (inactive)	3.94 µM (inactive)	5.43 µM (inactive)	50 µM (inactive)	14.4 µM (inactive)	6.82 µM (inactive)	5.09 µM (inactive)	3.53 µM (inactive)	> 100 µM (inactive)	2.29 µM (inactive)
CCOC(=O)C1=[N+]([O-])OC2=C(O)CCCC21 (stereo not given)	> 100 µM (inactive)	> 100 µM (inactive)	> 100 µM (inactive)	> 100 µM (inactive)	> 100 µM (inactive)	> 100 µM (inactive)	> 100 µM (inactive)	> 100 µM (inactive)	> 100 µM (inactive)	> 100 µM (inactive)	> 100 µM (inactive)	> 100 µM (inactive)	> 100 µM (inactive)	> 100 µM (inactive)	> 100 µM (inactive)	> 100 µM (inactive)	> 100 µM (inactive)	> 100 µM (inactive)	> 100 µM (inactive)	> 100 µM (inactive)
Cc1nc2ccccc2n1CCc1nc2ccccc2[nH]1	> 100 µM (inactive)	> 100 µM (inactive)	> 100 µM (inactive)	> 100 µM (inactive)	> 100 µM (inactive)	> 100 µM (inactive)	> 100 µM (inactive)	> 100 µM (inactive)	> 100 µM (inactive)	> 100 µM (inactive)	> 100 µM (inactive)	> 100 µM (inactive)	> 100 µM (inactive)	> 100 µM (inactive)	> 100 µM (inactive)	> 100 µM (inactive)	> 100 µM (inactive)	> 100 µM (inactive)	> 100 µM (inactive)	> 100 µM (inactive)
CN1CCOC1c1ccccc1O (stereo not given)	> 100 µM (inactive)	> 100 µM (inactive)	> 100 µM (inactive)	> 100 µM (inactive)	85.3 µM (inactive)	> 100 µM (inactive)	> 100 µM (inactive)	> 100 µM (inactive)	> 100 µM (inactive)	> 100 µM (inactive)	> 100 µM (inactive)	> 100 µM (inactive)	> 100 µM (inactive)	> 100 µM (inactive)	> 100 µM (inactive)	> 100 µM (inactive)	> 100 µM (inactive)	> 100 µM (inactive)	> 100 µM (inactive)	> 100 µM (inactive)
CC(C)OC(=O)OCSc1ccccc1/N=C/c1cccc([N+](=O)[O-])c1	> 10 µM (inactive)	> 10 µM (inactive)	> 10 µM (inactive)	> 10 µM (inactive)	> 10 µM (inactive)	> 10 µM (inactive)	> 10 µM (inactive)	> 10 µM (inactive)	> 10 µM (inactive)	> 10 µM (inactive)	> 10 µM (inactive)	> 10 µM (inactive)	> 10 µM (inactive)	> 10 µM (inactive)	> 10 µM (inactive)	> 10 µM (inactive)	> 10 µM (inactive)	> 10 µM (inactive)	> 10 µM (inactive)	> 10 µM (inactive)
